# Values joined by “and” are separate entries in the source; they are usually repeats but may differ in a detail not shown here. Equal values may be shown once. “Also recorded” adds a separate entry of the source. Read-outs that look alike come from different tables or passages of the source.
# How the values were obtained:
# [1] = Stability in cryopreserved hepatocytes, dog; type: in vitro ADME; details: for Compound Remaining (% of 0 min): Hepatocyte Stability Dog, single replicates
# Experimental: (§1) The final incubation volume was 500 μL. Two control compounds (verapamil and donepezil) were included for each microsomal species, along with the appropriate vehicle control. The reactions were terminated by transferring 50 μL of incubate to 100 μL methanol containing an internal standard (metoprolol) at appropriate time points (0, 10, 20, 40, 60, and 120 min for the test compound and 0, 5, 10, 20, 40, and 60 min for the control compounds). The termination plates were centrifuged at 4000 x g at 4°C for 30 min to precipitate the protein. The supernatants were then collected for analysis, and LC-MS/MS was used for detection purposes. The system consisted of an Acquity™ Binary Solvent Manager, Acquity™ 4-position heated column manager, 2777 Ultra High Pressure Autosampler, and a Xevo-TQ MS triple quadrupole mass spectrometer (Waters Ltd., Herts, UK). This process was carried out twice.
# [2] = Repeat-dose study in diabetic ZDF rats, serum ALT and AST; type: in vivo, rat; details: 15 and 45 mg/kg/day, 42 days
# Excerpt: Male ZDF rats (n = 8) and ZL rats (n = 8) were aged 9 weeks and were housed 2–3 per cage within a small animal facility in accordance with the guidelines approved by the Association for Assessment and Accreditation of Laboratory Animal Care. […] All animals had ad libitum access to water during the entire study period. The animals were fed a diet of Purina Rodent LabDiet 5C08, equivalent to LabDiet 5008. Treatment-grouped rats (N = 8) underwent oral gavage with the test compound or vehicle at 10 mL/kg for 6 weeks. For fasting blood levels of ALT and AST after overnight fasting, blood was collected from the jugular vein or through a cardiac puncture (on the day of euthanasia, the last day of the study). Blood was collected in AXYGEN microtubes (MCT-150-C) for clinical blood chemistry measurements. Next, the sample was allowed to clot for a minimum of 30 min at room temperature and then centrifuged at 4°C and 4000 x g for 10 min. The resultant serum was transferred into three pre-labeled AXYGEN microtubes for blood chemistry analysis using the ADVIA 2400 chemistry system. Rats were euthanized by overdose of CO2 followed by decapitation.
# [3] = Repeat-dose study in healthy Wistar Han rats, safety (14 and 56 days); type: in vivo, rat
# [4] = Single-dose pharmacokinetics in monkeys (p.o. and i.v.); type: in vivo, monkey; details: for bioavailability: p.o. vs i.v., read-out: F (bioavailability)
# [5] = Metabolite profiling, rat hepatocytes; type: in vitro ADME; details: 10 μM CPL207280, 120 min, ND = not detected
# Experimental: Suspensions of cryopreserved human, rat, and monkey hepatocytes were pooled from a minimum of three individuals. All cryopreserved hepatocytes were purchased from a commercial supplier. […] The cell density was 0.5 ×10^6 viable cells/mL. The final DMSO concentration during the incubation was 0.25%. Control incubations were performed in lysed cells to reveal any non-enzymatic degradation. Two control compounds were identified in each species. Samples (50 μL) were removed from the incubation mixture at 0, 10, 20, 40, 60, and 120 min and added to methanol containing an internal standard (100 μL) to stop the reaction. The samples were centrifuged (4000 x g at 4°C for 30 min) and the supernatants at each time point were pooled for analysis by LC MS/MS using Cyprotex generic methods. Following hepatocyte stability assays, the samples were utilized for metabolite profiling. […] Metabolites were characterized using a mass spectrometer comprising Waters Xevo QT of G2-S, Acquity Binary Solvent Manager, Acquity Column Manager, and 2777 Autosampler.
# [6] = Stability in cryopreserved hepatocytes, human; type: in vitro ADME; details: for Compound Remaining (% of 0 min): Hepatocyte Stability Human, single replicates
# Experimental: as §1
# [7] = Stability in cryopreserved hepatocytes, monkey; type: in vitro ADME; details: for Compound Remaining (% of 0 min): Hepatocyte Stability Monkey, single replicates
# Experimental: as §1
# [8] = cited from earlier work
# hepatocytes = details: read-out: IC50, hepatocyte toxicity, cited from earlier work
# [9] = 600 mg/kg for 14 days; cited from earlier work
# [10] = phase III studies, within six months; cited from earlier work
# [11] = summary table, literature; cited from earlier work
# [12] = cryopreserved hepatocytes (suspension), Dog (Beagle) hepatocytes, mean n = 2
# [13] = cryopreserved hepatocytes (suspension), Human hepatocytes, mean n = 2
# [14] = cryopreserved hepatocytes (suspension), Monkey (Cynomolgus) hepatocytes, mean n = 2
structure (smiles),measurement,setting,value
CC#C[C@@H](CC(=O)O)c1ccc(OCC(C)=C(C)C)cc1 [CPL207280],Compound Remaining (% of 0 min),[1]; 0 min,100 % of 0 min
same,Compound Remaining (% of 0 min),[1]; 10 min,93.0 % of 0 min and 92.9 % of 0 min
same,Compound Remaining (% of 0 min),[1]; 20 min,83.6 % of 0 min and 74.9 % of 0 min
same,Compound Remaining (% of 0 min),[1]; 40 min,73.0 % of 0 min and 74.7 % of 0 min
same,Compound Remaining (% of 0 min),[1]; 60 min,61.1 % of 0 min and 62.8 % of 0 min
same,Compound Remaining (% of 0 min),[1]; 120 min,65.2 % of 0 min and 60.1 % of 0 min
same,half-life at 3 μM,[1]; [12],180 min
same,microsomal CLint at 3 μM,[1]; [12],7.76 µL/min/mg
same,ALT and AST levels vs vehicle-treated ZDF group,[2],failed to alter the ALT and AST levels
same,MTD at 14 days,"[3]; both sexes, Wistar Han, rat, in vivo, oral, rats, 14-day study, read-out: maximum tolerated dose (MTD)",600 mg/kg
same,mortality,"[3]; rats, 1200 mg/kg group, 14-day study",death of one subject occurred on day 7
same,ALT,"[3]; rats, 1200 mg/kg, 14 days, fasted blood, significant increase from 34.2±8.5, in U/L (unit assumed)",60.0±8.0
same,ALP,"[3]; rats, 1200 mg/kg, 14 days, fasted blood, significant increase from 86.3±30.2, in U/L (unit assumed)",136.1±55.3
same,"ALT, AST and ALP","[3]; rats, 14-day study, doses up to 600 mg/kg","no ALT, AST, and ALP elevation"
same,liver histopathology,"[3]; rats, 14 days",no microscopic changes in the liver tissue
same,liver histopathology,"[3]; rats, 56 days",mild to moderate hypertrophy of centrilobular hepatocytes at doses ≥ 150 mg/kg/day; also recorded: minimal to mild centrilobular hepatocyte hypertrophy
same,"liver injury markers, TBA and T-BIL","[3]; rats, 56 days, 50, 150 and 500 mg/kg",none of the previously monitored markers nor TBA and T-BIL were altered
same,reversibility of hepatocyte hypertrophy / liver weight increase,"[3]; rats, 56 days, recovery period",reversible after 28 days
same,liver mass as a percentage of body weight,"[3]; rats, all groups (300, 600, 1200 mg/kg/day), 14 days",dose-dependent enlargement of the liver
same,Propensity to elevate liver enzyme damage markers,"[3]; summary comparison CPL207280 vs TAK-875 (TAK-875: ref 25), sign spans both columns",<
same,Propensity to elevate bile acids and bilirubin in plasma,[3]; summary table,No
same,Cmax,"[4]; cynomolgus, monkey, plasma, 6 mg/kg, monkey, dose 6 mg/kg, Day 1, individual animals",199 ng/mL
same,plasma conc,"[4]; monkey, 0,5 mg/kg i.v., 0.5 h, single animals",643.5 and 572.2
same,plasma conc,"[4]; monkey, 0,5 mg/kg i.v., 1 h, single animals",149.8 and 119.5
same,plasma conc,"[4]; monkey, 0,5 mg/kg i.v., 2 h, single animals",95.2 and 24.4 and 69.6
same,plasma conc,"[4]; monkey, 0,5 mg/kg i.v., 4 h, single animals",49.5 and 52.7 and 23.2
same,plasma conc,"[4]; monkey, 0,5 mg/kg i.v., 6 h, single animals",17.1 and 41 and 11.9
same,plasma conc,"[4]; monkey, 0,5 mg/kg i.v., 8 h, single animals",17.5 and 13.5
same,plasma conc,"[4]; monkey, 0,5 mg/kg i.v., 12 h, single animals",6.2 and 10.5 and 4
same,plasma conc,"[4]; monkey, 0,5 mg/kg i.v., 24 h, single animals",1.1 and 1.6 and 0
same,plasma conc,"[4]; monkey, 1,5 mg/kg p.o., 0 h, single animals",0
same,plasma conc,"[4]; monkey, 1,5 mg/kg p.o., 0.5 h, single animals",806.5 and 1491 and 408.8
same,plasma conc,"[4]; monkey, 1,5 mg/kg p.o., 1 h, single animals",1309.1 and 1299.9
same,plasma conc,"[4]; monkey, 1,5 mg/kg p.o., 2 h, single animals",1251.6 and 605.2 and 1177.7
same,plasma conc,"[4]; monkey, 1,5 mg/kg p.o., 4 h, single animals",75.2 and 203.9 and 54.2
same,plasma conc,"[4]; monkey, 1,5 mg/kg p.o., 8 h, single animals",31 and 109.7 and 13.2
same,plasma conc,"[4]; monkey, 1,5 mg/kg p.o., 12 h, single animals",13.7 and 53.4 and 8.1
same,plasma conc,"[4]; monkey, 1,5 mg/kg p.o., 24 h, single animals",1.6 and 5.3 and 0
same,exposure - AUC,"[4]; monkey, dose 6 mg/kg, Day 1, individual animals, 6 mg/kg",31225 ng·h/mL and 16287 ng·h/mL
same,AUC,"[4]; monkey, plasma, 6 mg/kg, monkey, dose 6 mg/kg, Day 1, individual animals, read-out: exposure - AUC",18200 ng·h/mL
same,concentration at 0.5 h,"[4]; monkey, plasma, intravenous, 0.5 mg/kg, monkey, 0,5 mg/kg i.v., 0.5 h, single animals, read-out: plasma conc",704 ng/mL
same,concentration at 1 h,"[4]; monkey, plasma, intravenous, 0.5 mg/kg, monkey, 0,5 mg/kg i.v., 1 h, single animals, read-out: plasma conc",198 ng/mL
same,concentration at 8 h,"[4]; monkey, plasma, intravenous, 0.5 mg/kg, monkey, 0,5 mg/kg i.v., 8 h, single animals, read-out: plasma conc",10.2 ng/mL
same,k el,"[4]; monkey, plasma, intravenous, monkeys, single dose",5.56e-05 s⁻¹
same,Cmax,"[4]; monkey, plasma, iv, 0.5 mg/kg, monkeys, 0,5 mg/kg i.v., n = 3",3120 ± 161 ng/mL
same,Tmax,"[4]; monkey, plasma, iv, 0.5 mg/kg, monkeys, 0,5 mg/kg i.v.",4.98 min
same,AUC,"[4]; monkey, plasma, iv, 0.5 mg/kg, monkeys, 0,5 mg/kg i.v., read-out: AUC",1370 ± 194 ng·h/mL
same,concentration at 0 h,"[4]; monkey, plasma, oral, 1.5 mg/kg, monkey, 1,5 mg/kg p.o., 0 h, single animals, read-out: plasma conc",0 ng/mL
same,concentration at 1 h,"[4]; monkey, plasma, oral, 1.5 mg/kg, monkey, 1,5 mg/kg p.o., 1 h, single animals, read-out: plasma conc",2250 ng/mL
same,bioavailability,"[4]; monkey, plasma, oral, 1.5 mg/kg, monkeys",~99%
same,Cmax,"[4]; monkey, plasma, po, 1.5 mg/kg, monkeys, 1,5 mg/kg p.o., n = 3",1680 ± 502 ng/mL
same,Tmax,"[4]; monkey, plasma, po, 1.5 mg/kg, monkeys, 1,5 mg/kg p.o.",60 min
same,AUC,"[4]; monkey, plasma, po, 1.5 mg/kg, monkeys, 1,5 mg/kg p.o., read-out: AUC",4060 ± 794 ng·h/mL
same,bioavailability,"[4]; monkey, plasma, po, 1.5 mg/kg, monkeys",99%
same,rat % of parent at 120 min,[5],57.6%
same,Compound Remaining (% of 0 min),[6]; 0 min,100 % of 0 min
same,Compound Remaining (% of 0 min),[6]; 10 min,73.2 % of 0 min and 74.0 % of 0 min
same,Compound Remaining (% of 0 min),[6]; 20 min,42.2 % of 0 min and 46.1 % of 0 min
same,Compound Remaining (% of 0 min),[6]; 40 min,20.6 % of 0 min and 16.0 % of 0 min
same,Compound Remaining (% of 0 min),[6]; 60 min,10.5 % of 0 min and 7.67 % of 0 min
same,Compound Remaining (% of 0 min),[6]; 120 min,3.07 % of 0 min and 1.62 % of 0 min
same,half-life at 3 μM,[6]; [13],17 min
same,microsomal CLint at 3 μM,[6]; [13],82.8 µL/min/mg
same,Compound Remaining (% of 0 min),[7]; 0 min,100 % of 0 min
same,Compound Remaining (% of 0 min),[7]; 10 min,65.3 % of 0 min and 63.2 % of 0 min
same,Compound Remaining (% of 0 min),[7]; 20 min,38.4 % of 0 min and 39.7 % of 0 min
same,Compound Remaining (% of 0 min),[7]; 40 min,17.5 % of 0 min and 19.5 % of 0 min
same,Compound Remaining (% of 0 min),[7]; 60 min,8.86 % of 0 min and 11.4 % of 0 min
same,Compound Remaining (% of 0 min),[7]; 120 min,8.94 % of 0 min and 8.99 % of 0 min
same,half-life at 3 μM,[7]; [14],17 min
same,microsomal CLint at 3 μM,[7]; [14],81.4 µL/min/mg
"Cc1cc(OCCCS(C)(=O)=O)cc(C)c1-c1cccc(COc2ccc3c(c2)OC[C@H]3CC(=O)O)c1 [TAK-875, fasiglifam, reference compound]",long exposure in humans,[8],approximately 30 h
same,IC50,hepatocytes; time of incubation 24 h,68 µM
same,IC50,hepatocytes; time of incubation 48 h,56 µM
same,"effect on ALT, TBA, T-BIL in dogs",[9],observed in only 2 of 6 animals
same,study participants with serum ALT elevations > 3 × ULN,[10],2.7%
same,Acyl glucuronide presence in human hepatocytes,[11],Yes

# From paper PMC8459971, “Evaluation of the hepatotoxicity of the novel GPR40 (FFAR1) agonist CPL207280 in the rat and monkey” (PLoS ONE, 2021)
